In ChEMBL document CHEMBL6121010, “Novel antileukemic compound with sub-micromolar potency against STAT5 addicted myeloid leukemia cells” (Eur J Med Chem, 2025):

Key:
[1] = test system: KU812 cell line; assay: Antileukemic activity against human KU812 cell line assessed as inhibition of cell growth incubated for 48 hrs by MTT assay; type: functional, cell-based; conditions: KU812, 48 h
[2] = test system: MV4-11; assay: Antileukemic activity against human MV4-11 cell line assessed as inhibition of cell growth incubated for 48 hrs by MTT assay; type: functional, cell-based; conditions: MV4-11, 48 h
[3] = test system: KCL-22; assay: Antileukemic activity against human KCL-22 assessed as cell viability incubated for 48 hrs by MTT assay; type: functional, cell-based; conditions: KCL-22, 48 h
[4] = Cytotoxicity against human HS-27A assessed as cell viability incubated for 48 hrs by MTT assay; type: toxicity, cell-based; conditions: HS-27A cells
[5] = test system: MOLM-13; assay: Antileukemic activity against human MOLM-13 assessed as cell viability incubated for 48 hrs by MTT assay; type: functional, cell-based; conditions: MOLM-13, 48 h
[6] = test system: K562; assay: Antileukemic activity against human K562 assessed as cell viability incubated for 48 hrs by MTT assay; type: functional, cell-based; conditions: K562, 48 h
[7] = Cytotoxicity against Bone marrow cell (unknown origin) assessed as cell viability incubated for 48 hrs by MTT assay; type: toxicity, cell-based; conditions: bone marrow cells (unknown origin)

SMILES | EC50 [1] | EC50 [2] | EC50 [3] | EC50 at 48 h [4] | EC50 [5] | EC50 [6] | EC50 at 48 h [7]
CC1(C)CCN(CCOc2ccc3[nH]ccc3c2)c2ccc(-c3cnc(Cl)nc3)cc21 | 1.3 µM | 2.4 µM |  |  |  |  | 
CC1(C)CCN(CCOc2ccc3[nH]ccc3c2)c2ccc(Cc3ccccn3)cc21 | 11.5 µM | 7.7 µM |  |  |  |  | 
CC1(C)CCN(CCOc2ccc3[nH]ccc3c2)c2ccc(-c3ncccn3)cc21 | 29.5 µM | 4.5 µM |  |  |  |  | 
CC1(C)CCN(CCOc2ccc3[nH]ccc3c2)c2ccc(-c3cnc(C#N)nc3)cc21 | 2.4 µM | 3.5 µM |  |  |  |  | 
CC1(C)CCN(CCOc2ccc3[nH]ccc3c2)c2ccc(-c3ccnnc3)cc21 | 44.6 µM | 16 µM |  |  |  |  | 
CC1(C)CCN(CCOc2ccc3[nH]ccc3c2)c2ccc(-c3cnccn3)cc21 | 48.1 µM | 7.7 µM |  |  |  |  | 
CC1(C)CCN(CCOc2ccc3[nH]ccc3c2)c2cccc(-c3ccnnc3)c21 | 23.5 µM | 14 µM |  |  |  |  | 
CC1(C)CCN(CCOc2ccc3[nH]ccc3c2)c2ccc(Cc3cccnc3)cc21 | 5.3 µM | 4.9 µM |  |  |  |  | 
CC1(C)CCN(CCOc2ccc3[nH]ccc3c2)c2ccc(-c3cccnc3)cc21 | 5.4 µM | 3.6 µM | 5.6 µM | 63.3 µM | 3.3 µM | 8.7 µM | 57.6 µM
CC1(C)CCN(CCOc2ccc3[nH]ccc3c2)c2cccc(-c3cnccn3)c21 | 39.3 µM | 15.3 µM |  |  |  |  | 
CC1(C)CCN(CCOc2ccc3[nH]ccc3c2)c2cccc(-c3cnc(N)cn3)c21 | 21.2 µM | 14.6 µM |  |  |  |  | 
CC1(C)CCN(CCOc2ccc3[nH]ccc3c2)c2cccc(Cc3ccncc3)c21 | 2.7 µM | 1.3 µM |  |  |  |  | 
CC1(C)CCN(CCOc2ccc3[nH]ccc3c2)c2ccc(Cc3ccncc3)cc21 | 21.3 µM | 25.8 µM |  |  |  |  | 
CC1(C)CCN(CCOc2ccc3[nH]ccc3c2)c2cccc(Cc3cccnc3)c21 | 9.3 µM | 3.1 µM |  |  |  |  | 
CC1(C)CCN(CCOc2ccc3[nH]ccc3c2)c2ccc(-c3cnc(N)nc3)cc21 | 2.3 µM | 0.4 µM | 0.3 µM | 43.9 µM | 0.3 µM | 2.9 µM | 14.5 µM
CC1(C)CCN(CCOc2ccc3[nH]ccc3c2)c2cccc(Cc3ccccn3)c21 | 74.4 µM | 12.4 µM |  |  |  |  | 
CC1(C)CCN(CCOc2ccc3[nH]ccc3c2)c2cccc(-c3cncnc3)c21 | > 100 µM | 51.9 µM |  |  |  |  | 
CC1(C)CCN(CCOc2ccc3[nH]ccc3c2)c2cc(Cc3ccccn3)ccc21 | > 100 µM | 34.2 µM |  |  |  |  | 
CC1(C)CCN(CCOc2ccc3[nH]ccc3c2)c2cccc(-c3ccncc3)c21 | 2.5 µM | 2.8 µM |  |  |  |  | 
CC1(C)CCN(CCOc2ccc3[nH]ccc3c2)c2cccc(-c3cnc(C#N)nc3)c21 | 4.7 µM | 5.1 µM |  |  |  |  | 
CC(C)(C)c1cc(CN(C(=O)CN(Cc2ccc(Cl)cc2)S(=O)(=O)c2c(F)c(F)c(F)c(F)c2F)c2ccc(C(=O)O)cc2)cc(C(C)(C)C)c1 | 4.3 µM | 2.6 µM | 15.3 µM | 27.8 µM | 2.8 µM | 10.1 µM | 18.1 µM
CC1(C)CCN(CCOc2ccc3[nH]ccc3c2)c2cc(Cc3cccnc3)ccc21 | 25.1 µM | 20.5 µM |  |  |  |  | 
CC1(C)CCN(CCOc2ccc3[nH]ccc3c2)c2ccc(-c3cnc(N)cn3)cc21 | 29.2 µM | 13.7 µM |  |  |  |  | 
CC1(C)CCN(CCOc2ccc3[nH]ccc3c2)c2cccc(-c3cnc(Cl)nc3)c21 | 6.7 µM | 9 µM |  |  |  |  | 
CC1(C)CCN(CCOc2ccc3[nH]ccc3c2)c2ccc(-c3cncnc3)cc21 | 8.3 µM | 4.2 µM |  |  |  |  | 
CC1(C)CCN(CCOc2ccc3[nH]ccc3c2)c2cccc(-c3cccnc3)c21 | 5.8 µM | 5.9 µM |  |  |  |  | 
CC1(C)CCN(CCOc2ccc3[nH]ccc3c2)c2cc(Cc3ccncc3)ccc21 |  | 14.3 µM |  |  |  |  | 
O=c1[nH]c2ccccc2n1C1CCN(CCCC(c2ccc(F)cc2)c2ccc(F)cc2)CC1 [PIMOZIDE] | 2.9 µM | 3.2 µM | 9.3 µM | 57.5 µM | 5.9 µM | 3.5 µM | 18.2 µM
